Test results: PubChem BioAssay (NCI)
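Cells were grown in 96-well plates and exposed to each compound for 48 hours at five concentrations; endpoints were interpolated linearly between bracketing concentrations, or set to the highest concentration if not reached. The concentration for 50% growth inhibition is given as GI50. TGI: concentration producing complete growth inhibition.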

Tests used:
Assay in all cases: growth of human tumour cells (NCI), 48 h
[1] = test system: SK-MEL-5 melanoma
[2] = test system: HOP-92 NSCLC
[3] = test system: SF-268 CNS
[4] = test system: M14 melanoma
[5] = test system: PC-3 prostate
[6] = test system: MCF7 breast
[7] = test system: NCI-H522 lung
[8] = test system: CAKI-1 renal
[9] = test system: MDA-MB-231 breast
[10] = test system: IGROV1 ovarian
[11] = test system: OVCAR-4 ovarian
[12] = test system: U251 CNS
[13] = test system: HOP-62 NSCLC
[14] = test system: RPMI-8226 leukemia
[15] = test system: MOLT-4 leukemia
[16] = test system: SN12C renal
[17] = test system: MDA-MB-435
[18] = test system: UACC-257 melanoma
[19] = test system: SK-MEL-28 melanoma
[20] = test system: EKVX NSCLC
[21] = test system: ACHN renal
[22] = test system: SNB-19 CNS
[23] = test system: SW-620 colon
[24] = test system: DU-145 prostate
[25] = test system: NCI-H460 lung
[26] = test system: COLO 205 colon
[27] = test system: 786-0 renal
[28] = test system: NCI-H226 lung
[29] = test system: MALME-3M melanoma
[30] = test system: SF-295 CNS
[31] = test system: OVCAR-3 ovarian
[32] = test system: TK-10 renal
[33] = test system: MDA-N
[34] = test system: SK-MEL-2 melanoma
[35] = test system: LOX IMVI melanoma
[36] = test system: UACC-62 melanoma
[37] = test system: RXF 393 renal
[38] = test system: NCI-H23 lung
[39] = test system: HCT-15 colon
[40] = test system: UO-31 renal
[41] = test system: K-562 leukemia
[42] = test system: KM12 colon
[43] = test system: HT29 colon
[44] = test system: OVCAR-5 ovarian
[45] = test system: BT-549 breast
[46] = test system: SF-539 CNS
[47] = test system: OVCAR-8 ovarian
[48] = test system: HCT-116 colon
[49] = test system: HS 578T breast
[50] = test system: HCC-2998 colon
[51] = test system: SNB-75 CNS
[52] = test system: HL-60(TB) leukemia
[53] = test system: SK-OV-3 ovarian
[54] = test system: A498 renal
[55] = test system: T-47D breast
[56] = test system: A549 NSCLC
[57] = test system: SR leukemia
[58] = test system: NCI/ADR-RES ovarian

`COC([CH2][Hg][n]1cnc2c1c(=O)n(C)c(=O)n2C)CN1C(=O)c2ccccc2S1(=O)=O` (stereo unspecified) was tested, and the GI50 [1] was > 100 µM, the TGI [1] was > 100 µM and the GI50 [2] was > 100 µM. The TGI [2] was > 100 µM, the GI50 [3] was > 100 µM and the TGI [3] was > 100 µM. The GI50 [4] was > 100 µM, the TGI [4] was > 100 µM and the GI50 [5] was > 100 µM. For the same compound, the TGI [5] was > 100 µM, the GI50 [6] was > 100 µM and the TGI [6] was > 100 µM. The GI50 [7] was > 100 µM, the TGI [7] was > 100 µM and the GI50 [8] was > 100 µM. The TGI [8] was > 100 µM, the GI50 [9] was > 100 µM and the TGI [9] was > 100 µM. The GI50 [10] was > 100 µM, the TGI [10] was > 100 µM and the GI50 [11] was > 100 µM. The TGI [11] was > 100 µM, the GI50 [12] was > 100 µM and the TGI [12] was > 100 µM. The GI50 [13] was > 100 µM, the TGI [13] was > 100 µM and the GI50 [14] was > 100 µM. The TGI [14] was > 100 µM, the GI50 [15] was > 100 µM and the TGI [15] was > 100 µM. The GI50 [16] was > 100 µM, the TGI [16] was > 100 µM and the GI50 [17] was > 100 µM. The TGI [17] was > 100 µM, the GI50 [18] was > 100 µM and the TGI [18] was > 100 µM. The GI50 [19] was > 100 µM, the TGI [19] was > 100 µM and the GI50 [20] was > 100 µM. The TGI [20] was > 100 µM, the GI50 [21] was > 100 µM and the TGI [21] was > 100 µM. The GI50 [22] was > 100 µM, the TGI [22] was > 100 µM and the GI50 [23] was > 100 µM. For the same compound, the TGI [23] was > 100 µM, the GI50 [24] was > 100 µM and the TGI [24] was > 100 µM. The GI50 [25] was > 100 µM, the TGI [25] was > 100 µM and the GI50 [26] was > 100 µM. The TGI [26] was > 100 µM, the GI50 [27] was > 100 µM and the TGI [27] was > 100 µM. The GI50 [28] was > 100 µM, the TGI [28] was > 100 µM and the GI50 [29] was > 100 µM. The TGI [29] was > 100 µM, the GI50 [30] was > 100 µM and the TGI [30] was > 100 µM. The GI50 [31] was > 100 µM, the TGI [31] was > 100 µM and the GI50 [32] was > 100 µM. The TGI [32] was > 100 µM, the GI50 [33] was > 100 µM and the TGI [33] was > 100 µM. For the same compound, the GI50 [34] was > 100 µM, the TGI [34] was > 100 µM and the GI50 [35] was > 100 µM. For the same compound, the TGI [35] was > 100 µM, the GI50 [36] was > 100 µM and the TGI [36] was > 100 µM. The GI50 [37] was > 100 µM, the TGI [37] was > 100 µM and the GI50 [38] was > 100 µM. The TGI [38] was > 100 µM, the GI50 [39] was > 100 µM and the TGI [39] was > 100 µM. The GI50 [40] was > 100 µM, the TGI [40] was > 100 µM and the GI50 [41] was > 100 µM. For the same compound, the TGI [41] was > 100 µM, the GI50 [42] was > 100 µM and the TGI [42] was > 100 µM. The GI50 [43] was > 100 µM, the TGI [43] was > 100 µM and the GI50 [44] was > 100 µM. For the same compound, the TGI [44] was > 100 µM, the GI50 [45] was > 100 µM and the TGI [45] was > 100 µM. The GI50 [46] was > 100 µM, the TGI [46] was > 100 µM and the GI50 [47] was > 100 µM. For the same compound, the TGI [47] was > 100 µM, the GI50 [48] was > 100 µM and the TGI [48] was > 100 µM. The GI50 [49] was > 100 µM, the TGI [49] was > 100 µM and the GI50 [50] was > 100 µM. For the same compound, the TGI [50] was > 100 µM, the GI50 [51] was > 100 µM and the TGI [51] was > 100 µM. For the same compound, the GI50 [52] was 53.4 µM, the TGI [52] was > 100 µM and the GI50 [53] was > 100 µM. The TGI [53] was > 100 µM, the GI50 [54] was > 100 µM and the TGI [54] was > 100 µM. For the same compound, the GI50 [55] was > 100 µM, the TGI [55] was > 100 µM and the GI50 [56] was > 100 µM. The TGI [56] was > 100 µM, the GI50 [57] was 77.2 µM and the TGI [57] was > 100 µM. For the same compound, the GI50 [58] was > 100 µM and the TGI [58] was > 100 µM.
